The target in one data set is T1, TTK (Homo sapiens, UniProt P33981).
T1 sequence (P33981 1-857): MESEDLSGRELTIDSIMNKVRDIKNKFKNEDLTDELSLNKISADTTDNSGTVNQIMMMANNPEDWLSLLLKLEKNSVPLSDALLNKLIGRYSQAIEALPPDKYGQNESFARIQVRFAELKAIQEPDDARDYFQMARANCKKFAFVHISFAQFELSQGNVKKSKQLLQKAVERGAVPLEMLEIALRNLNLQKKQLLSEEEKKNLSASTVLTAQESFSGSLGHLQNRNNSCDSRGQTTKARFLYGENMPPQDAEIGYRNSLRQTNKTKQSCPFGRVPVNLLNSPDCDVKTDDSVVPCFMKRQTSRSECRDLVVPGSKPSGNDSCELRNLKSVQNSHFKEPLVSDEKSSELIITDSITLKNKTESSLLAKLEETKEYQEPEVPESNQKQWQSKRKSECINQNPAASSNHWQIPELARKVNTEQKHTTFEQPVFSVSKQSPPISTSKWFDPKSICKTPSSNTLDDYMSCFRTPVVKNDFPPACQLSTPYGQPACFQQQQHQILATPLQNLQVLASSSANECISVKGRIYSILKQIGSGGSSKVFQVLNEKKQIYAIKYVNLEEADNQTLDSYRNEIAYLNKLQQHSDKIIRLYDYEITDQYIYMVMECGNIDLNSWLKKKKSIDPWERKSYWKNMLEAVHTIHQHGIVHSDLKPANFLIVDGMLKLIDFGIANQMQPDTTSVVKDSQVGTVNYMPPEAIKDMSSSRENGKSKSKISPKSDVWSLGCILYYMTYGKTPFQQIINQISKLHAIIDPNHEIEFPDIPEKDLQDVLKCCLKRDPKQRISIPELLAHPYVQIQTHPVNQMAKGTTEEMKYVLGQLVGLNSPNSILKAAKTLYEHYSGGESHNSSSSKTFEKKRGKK
As to the kind of experiment: Kinase profile (33P ATP filter binding). Particulars: read-out: Remaining protein kinase activity. Type of data set: biochemical.

Another data set deals with PKCγ (Homo sapiens, UniProt P05129). As to the kind of experiment: Kinase profile (33P ATP filter binding). Type of data set: biochemical. Conditions: read-out: Remaining protein kinase activity.
The next data set concerns the target FGF-R1 (Homo sapiens, UniProt P11362). As to the kind of experiment: Kinase profile (33P ATP filter binding). In kind it is biochemical. Conditions: read-out: Remaining protein kinase activity.
A further data set concerns the target CAMKKb (Homo sapiens, UniProt Q96RR4). The experiment in a line: Kinase profile (33P ATP filter binding). Type of data set: biochemical. Particulars: read-out: Remaining protein kinase activity.
The target of a further data set is CLK2 (Homo sapiens, UniProt P49760). As to the kind of experiment: Kinase profile (33P ATP filter binding). Type of data set: biochemical. Conditions: read-out: Remaining protein kinase activity.
Another data set concerns the target IGF-1R (Homo sapiens, UniProt P08069). As to the kind of experiment: Kinase profile (33P ATP filter binding). In kind it is biochemical. Conditions: read-out: Remaining protein kinase activity.
Another data set concerns the target MAPKAP-K2 (Homo sapiens, UniProt P49137). The experiment in a line: Kinase profile (33P ATP filter binding). Type of data set: biochemical. Particulars: read-out: Remaining protein kinase activity.
The target of the next data set is TrkA (Homo sapiens, UniProt P04629). As to the kind of experiment: Kinase profile (33P ATP filter binding). Type of data set: biochemical. Conditions: read-out: Remaining protein kinase activity.
TrkA, sequence (P04629 33-796): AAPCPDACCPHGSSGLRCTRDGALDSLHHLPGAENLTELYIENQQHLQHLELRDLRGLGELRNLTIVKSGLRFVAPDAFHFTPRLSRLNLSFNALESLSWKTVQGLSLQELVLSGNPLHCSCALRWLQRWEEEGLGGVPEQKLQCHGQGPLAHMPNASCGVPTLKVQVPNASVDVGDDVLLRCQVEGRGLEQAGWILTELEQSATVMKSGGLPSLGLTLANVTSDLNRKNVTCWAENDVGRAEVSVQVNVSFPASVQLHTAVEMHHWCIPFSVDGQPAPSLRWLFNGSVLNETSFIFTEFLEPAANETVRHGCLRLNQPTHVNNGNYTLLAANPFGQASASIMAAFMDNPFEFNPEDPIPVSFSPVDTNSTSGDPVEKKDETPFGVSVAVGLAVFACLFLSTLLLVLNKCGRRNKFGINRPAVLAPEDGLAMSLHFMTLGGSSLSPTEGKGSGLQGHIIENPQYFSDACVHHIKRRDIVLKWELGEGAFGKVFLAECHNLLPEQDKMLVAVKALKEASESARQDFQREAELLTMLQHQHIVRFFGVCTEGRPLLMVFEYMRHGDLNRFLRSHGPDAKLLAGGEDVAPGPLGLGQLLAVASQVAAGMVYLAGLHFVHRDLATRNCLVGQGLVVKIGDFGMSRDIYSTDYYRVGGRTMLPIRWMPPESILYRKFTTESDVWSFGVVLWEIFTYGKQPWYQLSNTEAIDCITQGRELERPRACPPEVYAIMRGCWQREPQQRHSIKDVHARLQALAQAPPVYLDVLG
A further data set addresses DYRK1A (Homo sapiens, UniProt Q13627). As to the kind of experiment: Kinase profile (33P ATP filter binding). Type of data set: biochemical. Particulars: read-out: Remaining protein kinase activity.
The next data set deals with SYK (Homo sapiens, UniProt P43405). The experiment in a line: Kinase profile (33P ATP filter binding). Type of data set: biochemical.
The target of another data set is DYRK3 (Homo sapiens, UniProt O43781). The experiment in a line: Kinase profile (33P ATP filter binding). Type of data set: biochemical. Conditions: read-out: Remaining protein kinase activity.
The target in the next data set is T2, PINK (Tribolium castaneum, UniProt D6WMX4).
T2 sequence (D6WMX4 1-570): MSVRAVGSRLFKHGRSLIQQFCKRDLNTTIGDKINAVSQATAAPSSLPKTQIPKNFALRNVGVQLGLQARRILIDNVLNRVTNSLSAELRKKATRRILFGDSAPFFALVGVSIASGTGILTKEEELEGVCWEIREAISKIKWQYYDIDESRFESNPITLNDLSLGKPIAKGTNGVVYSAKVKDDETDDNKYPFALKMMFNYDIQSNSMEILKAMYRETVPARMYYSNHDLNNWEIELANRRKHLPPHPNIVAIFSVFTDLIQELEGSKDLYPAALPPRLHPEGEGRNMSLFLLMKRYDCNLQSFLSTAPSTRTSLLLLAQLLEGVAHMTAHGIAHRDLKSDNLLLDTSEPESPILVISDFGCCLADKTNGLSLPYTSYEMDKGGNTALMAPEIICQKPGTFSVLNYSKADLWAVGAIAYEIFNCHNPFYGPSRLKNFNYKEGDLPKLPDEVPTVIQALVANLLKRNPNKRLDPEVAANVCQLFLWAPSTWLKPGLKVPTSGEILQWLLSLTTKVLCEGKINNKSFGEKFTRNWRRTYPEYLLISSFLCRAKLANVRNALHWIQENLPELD
The experiment in a line: Kinase profile (33P ATP filter binding). In kind it is biochemical. Particulars: read-out: Remaining protein kinase activity.

In another data set the target is DYRK2 (Homo sapiens, UniProt Q92630). The experiment in a line: Kinase profile (33P ATP filter binding). Type of data set: biochemical. Conditions: read-out: Remaining protein kinase activity.
Another data set addresses GSK3b (Homo sapiens, UniProt P49841). The experiment in a line: Kinase profile (33P ATP filter binding). In kind it is biochemical. Conditions: read-out: Remaining protein kinase activity.
The nature of another data set: Rat IV pharmacokinetics. In kind it is in vivo. Particulars: after IV bolus 1 mg/kg.

Like-named read-outs stand apart in the source and are kept apart here.

IGF-1R, sequence (P08069 31-1367): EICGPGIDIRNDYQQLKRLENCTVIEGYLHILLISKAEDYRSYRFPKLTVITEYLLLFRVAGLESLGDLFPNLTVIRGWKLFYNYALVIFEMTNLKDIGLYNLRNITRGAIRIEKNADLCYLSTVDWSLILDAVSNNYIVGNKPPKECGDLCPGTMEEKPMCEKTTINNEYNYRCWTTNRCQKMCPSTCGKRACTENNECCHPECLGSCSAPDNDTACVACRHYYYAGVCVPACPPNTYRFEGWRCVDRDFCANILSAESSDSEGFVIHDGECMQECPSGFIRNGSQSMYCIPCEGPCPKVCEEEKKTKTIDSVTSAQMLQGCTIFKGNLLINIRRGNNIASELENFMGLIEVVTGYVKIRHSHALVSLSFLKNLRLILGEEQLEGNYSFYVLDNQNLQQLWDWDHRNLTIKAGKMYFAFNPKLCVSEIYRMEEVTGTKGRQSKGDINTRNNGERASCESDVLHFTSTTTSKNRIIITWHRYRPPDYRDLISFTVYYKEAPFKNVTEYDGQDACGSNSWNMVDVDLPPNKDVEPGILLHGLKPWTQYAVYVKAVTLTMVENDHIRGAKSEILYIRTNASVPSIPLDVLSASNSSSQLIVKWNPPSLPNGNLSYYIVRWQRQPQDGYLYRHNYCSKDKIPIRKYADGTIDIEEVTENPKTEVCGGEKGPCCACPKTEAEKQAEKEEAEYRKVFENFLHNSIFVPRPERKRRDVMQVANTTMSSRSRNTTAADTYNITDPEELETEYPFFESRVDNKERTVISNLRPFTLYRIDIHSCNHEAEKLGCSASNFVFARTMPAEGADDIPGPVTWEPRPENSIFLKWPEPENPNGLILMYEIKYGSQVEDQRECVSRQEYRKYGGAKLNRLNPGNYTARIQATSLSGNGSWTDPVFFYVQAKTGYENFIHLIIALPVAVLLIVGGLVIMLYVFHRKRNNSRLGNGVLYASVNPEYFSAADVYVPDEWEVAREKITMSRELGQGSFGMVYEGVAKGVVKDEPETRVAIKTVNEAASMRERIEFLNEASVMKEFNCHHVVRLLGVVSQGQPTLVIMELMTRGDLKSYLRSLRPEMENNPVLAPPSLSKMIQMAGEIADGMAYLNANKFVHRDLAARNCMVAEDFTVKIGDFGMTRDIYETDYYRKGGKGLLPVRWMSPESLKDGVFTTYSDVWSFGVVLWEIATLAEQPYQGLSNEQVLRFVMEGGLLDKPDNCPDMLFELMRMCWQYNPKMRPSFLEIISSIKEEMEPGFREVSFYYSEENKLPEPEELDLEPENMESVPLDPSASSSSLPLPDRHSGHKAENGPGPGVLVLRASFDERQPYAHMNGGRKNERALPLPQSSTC
CAMKKb, sequence (Q96RR4 whole entry): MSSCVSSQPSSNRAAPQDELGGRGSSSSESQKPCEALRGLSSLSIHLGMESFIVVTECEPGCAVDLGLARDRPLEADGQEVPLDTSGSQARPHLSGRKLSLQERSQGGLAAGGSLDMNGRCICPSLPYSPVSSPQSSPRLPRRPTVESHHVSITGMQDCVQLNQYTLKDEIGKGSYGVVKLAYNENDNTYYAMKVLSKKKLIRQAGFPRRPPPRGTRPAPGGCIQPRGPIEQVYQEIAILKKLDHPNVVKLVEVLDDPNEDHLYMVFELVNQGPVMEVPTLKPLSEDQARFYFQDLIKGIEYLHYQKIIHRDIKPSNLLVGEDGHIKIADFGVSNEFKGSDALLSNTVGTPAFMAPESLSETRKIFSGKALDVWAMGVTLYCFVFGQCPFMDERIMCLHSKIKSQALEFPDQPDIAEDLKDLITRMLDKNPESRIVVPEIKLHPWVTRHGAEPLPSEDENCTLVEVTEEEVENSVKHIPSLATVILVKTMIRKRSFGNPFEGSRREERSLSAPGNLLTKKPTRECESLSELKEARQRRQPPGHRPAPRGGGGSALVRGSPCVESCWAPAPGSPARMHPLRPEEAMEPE
MAPKAP-K2, sequence (P49137 whole entry): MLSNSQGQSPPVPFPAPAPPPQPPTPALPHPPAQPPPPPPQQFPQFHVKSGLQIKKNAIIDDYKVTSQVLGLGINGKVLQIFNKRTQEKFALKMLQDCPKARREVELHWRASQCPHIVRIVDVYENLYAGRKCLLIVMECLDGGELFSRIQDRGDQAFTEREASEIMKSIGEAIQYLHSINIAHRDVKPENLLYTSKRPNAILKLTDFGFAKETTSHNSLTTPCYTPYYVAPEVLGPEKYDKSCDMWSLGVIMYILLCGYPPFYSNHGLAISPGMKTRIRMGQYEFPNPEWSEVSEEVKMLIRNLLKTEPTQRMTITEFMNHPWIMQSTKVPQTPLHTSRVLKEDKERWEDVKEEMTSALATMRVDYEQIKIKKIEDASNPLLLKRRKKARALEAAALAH
GSK3b, sequence (P49841 whole entry): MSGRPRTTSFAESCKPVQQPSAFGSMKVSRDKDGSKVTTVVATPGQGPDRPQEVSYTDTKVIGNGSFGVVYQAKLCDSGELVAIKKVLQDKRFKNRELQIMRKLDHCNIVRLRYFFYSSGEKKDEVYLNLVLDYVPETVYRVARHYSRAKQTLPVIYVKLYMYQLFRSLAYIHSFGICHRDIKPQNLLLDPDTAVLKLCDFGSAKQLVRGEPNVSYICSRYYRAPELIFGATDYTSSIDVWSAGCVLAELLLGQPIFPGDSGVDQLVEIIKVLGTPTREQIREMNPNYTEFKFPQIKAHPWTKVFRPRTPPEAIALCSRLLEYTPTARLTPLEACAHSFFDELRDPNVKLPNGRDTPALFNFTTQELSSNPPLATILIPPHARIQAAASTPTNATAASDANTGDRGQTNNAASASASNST
FGF-R1, sequence (P11362 22-822): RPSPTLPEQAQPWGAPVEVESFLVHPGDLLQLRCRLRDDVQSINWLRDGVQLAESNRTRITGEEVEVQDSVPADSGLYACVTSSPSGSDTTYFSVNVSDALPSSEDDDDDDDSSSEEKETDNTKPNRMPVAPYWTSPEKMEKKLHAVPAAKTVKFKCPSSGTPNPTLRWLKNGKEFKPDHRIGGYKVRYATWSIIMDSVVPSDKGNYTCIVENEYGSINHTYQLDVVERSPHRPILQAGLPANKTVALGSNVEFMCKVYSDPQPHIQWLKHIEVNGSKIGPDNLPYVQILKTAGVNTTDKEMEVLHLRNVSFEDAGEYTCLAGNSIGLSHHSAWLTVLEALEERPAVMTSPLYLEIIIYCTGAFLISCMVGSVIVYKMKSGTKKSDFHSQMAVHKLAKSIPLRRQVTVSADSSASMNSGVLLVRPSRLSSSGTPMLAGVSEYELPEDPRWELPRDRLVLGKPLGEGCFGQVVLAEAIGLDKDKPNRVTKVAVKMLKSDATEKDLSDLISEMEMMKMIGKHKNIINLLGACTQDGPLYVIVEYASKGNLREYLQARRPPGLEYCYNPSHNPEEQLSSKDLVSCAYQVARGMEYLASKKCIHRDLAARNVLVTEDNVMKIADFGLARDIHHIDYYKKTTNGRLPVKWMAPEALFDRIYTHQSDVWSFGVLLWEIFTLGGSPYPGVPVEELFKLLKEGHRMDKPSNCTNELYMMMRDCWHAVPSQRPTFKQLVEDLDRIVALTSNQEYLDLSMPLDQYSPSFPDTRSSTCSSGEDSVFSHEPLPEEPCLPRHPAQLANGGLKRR

As for `COc1ccc2sc(-c3cncc(N)c3)nc2c1` [compound 1, 5-(5-Methoxybenzo[d]thiazol-2-yl)pyridin-3-amine], the remaining activity at 1 µM on TTK (TTK, 1 μM) stood at 86%; on PKCγ (PKCγ, 1 μM), 115%; on FGF-R1 (1 μM) it was 110%; on CAMKKb (CAMKKb, 1 μM), 107%; at CLK2 (1 μM) it was 23%; on IGF-1R (IGF-1R, 1 μM) it was 96%. The remaining activity at 1 µM on MAPKAP-K2 (MAPKAP-K2, 1 μM) amounted to 122%; at TrkA (TrkA, 1 μM) it was 104%; at DYRK1A (1 μM) it was 7%; on DYRK3 (1 μM) it was 14%; at PINK it was 121%; at DYRK2 (1 μM), 11%. Further, the remaining activity at 1 µM on GSK3b (1 μM) came to 107%. For the same molecule, the remaining activity at 100 µM at TTK (TTK, 100 μM) was 47%; at PKCγ (PKCγ, 100 μM) it was 61%; on FGF-R1 (100 μM), 91%; at CAMKKb (CAMKKb, 100 μM), 37%; at CLK2 (100 μM), 1%; at IGF-1R (IGF-1R, 100 μM) it was 68%. For the same molecule, the remaining activity at 100 µM on MAPKAP-K2 (MAPKAP-K2, 100 μM) is 66%; on TrkA (TrkA, 100 μM) it was 33%; at DYRK1A (100 μM), 0%; on DYRK3 (100 μM) it was 2%; on PINK, 114%; at DYRK2 (100 μM) it was 1%. Also, the remaining activity at 100 µM on GSK3b (100 μM) worked out at 25%. In addition, the “Remaining protein kinase activity” value was determined as 113% on SYK (1 μM) and 38% on SYK (100 μM).

Turning to `COc1ccc2sc(-c3cncc(NC(C)=O)c3)nc2c1` [PST-001, N-(5-(5-Methoxybenzo[d]thiazol-2-yl)pyridin-3-yl)acetamide], the remaining activity at 1 µM on TTK was determined as 88%; on PKCγ, 125%; at CAMKKb it was 104%; at IGF-1R, 104%; at MAPKAP-K2 it was 109%; at TrkA, 111%. Moreover, the remaining activity at 1 µM on PINK is 119%. Besides, the remaining activity at 100 µM at TTK worked out at 69%; at PKCγ, 124%; on CAMKKb it was 54%; at IGF-1R it was 104%; at MAPKAP-K2 it was 111%; at TrkA it was 45%. Moreover, on PINK, the remaining activity at 100 µM worked out at 118%. Further, the “Remaining protein kinase activity” value at SYK (1 μM) was found to be 112%; on SYK (100 μM) it was 58%. The “PST-001 in the urine” value in “Rat IV pharmacokinetics” is on record as “No PST-001 could be found”.

The values above are taken from PMC8617627, “Novel DYRK1A Inhibitor Rescues Learning and Memory Deficits in a Mouse Model of Down Syndrome” (Pharmaceuticals, 2021).
